Publication PMC7887271, “Fast acting allosteric phosphofructokinase inhibitors block trypanosome glycolysis and cure acute African trypanosomiasis in mice” (Nature Communications, 2021)
Where two headings read alike, the source gives them in different places.

What was measured:
[1] = test system: bloodstream form of T. brucei strain Lister 427; test: T. b. brucei 427 growth inhibition assay (LILiT, Alamar Blue); type: cell-based; conditions: Trypanosoma brucei, 72 h, read-out: EC50 (µM) in vitro parasite killing of bloodstream form T. brucei Lister 427 (Tbb EC50), 72 h, Alamar Blue
Description: The ‘in vitro’ parasite killing assay used the BSF of the non-human pathogenic subspecies T. b. brucei, strain Lister 427, cultured in HMI-9 medium containing 10% foetal bovine serum. A second cell line, T. b. brucei GVR35-Luc2 which constitutively expresses firefly luciferase was grown in Modified HMI-9 plus 20% foetal calf serum supplemented with 20% Serum Plus (Sigma) and 0.15 μg mL^−1 puromycin. Both strains of trypanosomes were cultured in T-25 vented cap flasks at 37 °C and 5% CO2.
The ‘in vitro’ parasite killing assay used the bloodstream-form of the non-human pathogenic subspecies T. b. brucei, strain Lister 427 (a gift from Professor Keith Matthews) which was cultured in HMI-9 medium containing 10% fetal bovine serum (FBS). A second cell line, T. b. brucei GVR35-Luc2 which constitutively expresses firefly luciferase (5) was grown in Modified HMI-9 plus 20% fetal calf serum (FCS) supplemented with 20% Serum Plus (Sigma) and 0.15 μg/ml puromycin as described previously (5). Both strains of trypanosomes were cultured in T-25 vented cap flasks at 37 °C and 5% CO2.
Growth inhibition tests of bloodstream-form T. b. brucei Lister 427 were carried out using the LILiT (long incubation low inoculation test) method (6). The parasites were cultured in complete HMI-9 medium containing 10% FBS in 96-well plates (Greiner Inc.) with approximately 2500 trypanosomes per well. A 3-fold dilution series (in the range from 45 µM – 0.020 µM) of the inhibitor compounds were prepared in the plate; the maximal concentration of DMSO was 0.45%. After 72 hours of incubation at 37 °C and 5% CO2, 50 µl Alamar Blue (0.2% diluted with Dulbecco’s-phosphate buffered saline (D-PBS, Sigma) was added to each well and plates were incubated at 37 °C and 5% CO2 for 4 hours. Fluorescence was read on the BMG multiplate reader using an excitation wavelength of 530 nm and an emission wavelength of 590 nm.

[2] = biological target: T1, T. brucei phosphofructokinase (TbPFK) (Trypanosoma brucei brucei, UniProt O15648); test: ADP-Glo assay for measuring PFK inhibition; type: biochemical
T1 construct: made in house; host or cells: Escherichia coli C41 (pET28a, codon optimised gene)
T1 sequence (O15648 1-487): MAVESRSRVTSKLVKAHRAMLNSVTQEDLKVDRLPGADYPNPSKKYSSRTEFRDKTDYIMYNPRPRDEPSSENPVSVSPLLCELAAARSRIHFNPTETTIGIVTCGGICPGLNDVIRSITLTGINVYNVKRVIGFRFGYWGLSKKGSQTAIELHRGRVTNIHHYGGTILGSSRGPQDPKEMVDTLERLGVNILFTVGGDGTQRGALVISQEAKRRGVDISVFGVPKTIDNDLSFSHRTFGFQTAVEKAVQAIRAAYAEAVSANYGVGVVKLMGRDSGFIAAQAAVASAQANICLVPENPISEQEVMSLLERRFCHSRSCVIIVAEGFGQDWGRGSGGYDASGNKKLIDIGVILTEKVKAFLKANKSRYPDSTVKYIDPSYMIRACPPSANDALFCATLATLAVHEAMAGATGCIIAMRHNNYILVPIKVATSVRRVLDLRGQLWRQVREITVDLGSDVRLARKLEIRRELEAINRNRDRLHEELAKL
Description: Parasite enzyme kinetic data were measured using N-terminally His6-tagged TbPFK expressed in Escherichia coli C41 cells, using a codon optimised gene inserted in a pET28a vector (Supplementary Methods 1). Recombinant human PFKs were expressed in PFK-deficient Saccharomyces cerevisiae. PFK enzyme inhibition was measured using an ADP-Glo^TM assay (Promega) in a 96-well plate format (Supplementary Methods 2.1), using a Spectramax© M5 Multimode Plate Reader to measure luminescence values which were converted to ADP concentrations. IC50 values were determined using a sigmoidal curve fitting algorithm in Kaleidagraph 4 (Supplementary Fig. 1). Mode of action studies were carried out using a linked enzyme assay coupling the forward reaction of TbPFK to the M1 isoform of human pyruvate kinase followed by lactate dehydrogenase. The change in UV absorbance at 340 nm resulting from the conversion of NADH to NAD^+ was measured at 25 °C in ‘kinetic mode’ on a Spectramax© M5 Multimode plate reader. Initial velocities were plotted against substrate concentration to give curves showing non-competitive inhibition (Supplementary Fig. 2). An alternative linked enzyme assay was developed to control for the potential inhibitory activity of ATP on human PFK (Supplementary Methods 2.3).
The ADP-Glo™ end-point assay kit manufactured by Promega (cat. No. V9102) was used to measure ADP produced in the phosphofructokinase reaction:
Following this kinase reaction, the addition of a reagent results in any unused background ATP being removed and the reaction is sequestered. A second reagent is then added to convert the remaining ADP to ATP which is coupled to the luciferase/luciferin reaction to produce light. ‘Ultrapure’ ATP and ADP from Promega were used to reduce background noise. All reagents additional to those provided in the Promega ADP-Glo™ kit were purchased from Sigma-Aldrich.
The assay buffer comprised 50 mM triethanolamine (TEA), 10 mM MgCl2, 5 mM KCl, 0.1% w/v bovine serum albumin (BSA), 0.005% Tween-20, 1% DMSO, pH 7.4. A 3-fold serial dilution of 250x inhibitor stocks was carried out in 100% DMSO. 2 µl of these dilutions was added to 198 µl assay buffer and mixed well using a multichannel pipette. […] Concentration ranges of inhibitor compounds were 40 - 0.006 µM (final concentration, 1% DMSO). The PFK reaction in the presence of inhibitor was carried out using 10 µl of 1 µg/ml PFK (final concentration 0.4 µg/ml) which was added to 10 µl of the 1% DMSO inhibitor compound serial dilutions in a white, non-binding 96-well plate (Greiner BioOne 655904). CTCB-001 was used as a positive control at a final concentration of 5 µM. Assay buffer containing 1% DMSO was added instead of inhibitor compound for the negative control. The protein/inhibitor mixture was incubated for 10 minutes at room temperature (RT). The kinase reaction was started by adding a 5x ATP/F6P stock in assay buffer (final concentrations 0.5 mM F6P and 0.1 mM ATP). Plates were then sealed, centrifuged at 560 x g for 30 seconds and incubated at RT for 30 minutes. 25 µl of ‘ADP-Glo™ Reagent’ was then added to each well, mixed using a multichannel pipette and incubated at room temperature for 40 minutes. 50 µl of ‘Kinase Detection Reagent’ was added and incubated for 50 minutes at RT. The luminescence was recorded using a Spectramax© M5 Multi-mode Plate Reader (Molecular Devices) in single-point mode, with an integration time of 750 milliseconds. The luminescence values were converted to ADP concentration using a standard calibration curve for ADP. The resulting ADP concentrations were plotted as a function of inhibitor compound concentration using Kaleidagraph 4.0 software. The data were analysed using non-linear regression and a sigmoidal curve was fitted (Supplementary Figure 1) to determine the IC50. Kaleidagraph 4.0 uses the Levenberg-Marquardt algorithm in an iterative procedure to fit non-linear curves. […] The slope of the curve at the midpoint (m4) was set to 1.

`Clc1ccc(Cn2cnc3cnccc32)cc1Cl` [CTCB107] showed an EC50 [1] of 8.5 ± 0.6 µM, an IC50 ([2]; ADP-Glo, mean ± SD, read-out: IC50 (µM) for inhibition of T. brucei phosphofructokinase (PFK IC50)) of 1.14 ± 0.76 µM and an IC50 ([2]; source data for Fig. 2 and Table 1, read-out: Average IC50) of 0.6 µM. It also gave an IC50 ([2]; source data, read-out: IC50 (µM), single dated measurement) of 0.6 µM.
